Measured values taken from PMC4014597 (PLoS ONE, 2014).

How the values were obtained:
[1] = biological target: T1, C-terminal catalytic domain of human DNMT3A (hDNMT3A) (Homo sapiens, UniProt Q9Y6K1); experiment: DNMT3A assay (restriction-based fluorescence assay); type: biochemical; conditions: for inhibition at 3.2 µM: 3.2 µM compound; for inhibition at 3.2 µM / inhibition at 10 µM / inhibition at 32 µM / inhibition at 100 µM: read-out: % inhibition ± SD hDNMT3A; for inhibition at 10 µM: 10 µM compound; for inhibition at 32 µM: 32 µM compound; for inhibition at 100 µM: 100 µM compound; for EC50: catalytic domain of hDNMT3A, means of at least three experiments
T1 construct: catalytic domain of human DNMT3A (residues 623–908), produced as described; made in house
Excerpt: (§1) DNMT3A enzyme inhibition was adapted from the restriction-based fluorescence assay protocol described in Ceccaldi et al.. Briefly, a 5'-labelled biotin oligonucleotide is hybridized to its complementary strand labelled with 6-carboxyfluorescein at the 3′-end into a 384 well microplate (black Optiplates; Perkin Elmer) pre-coated with avidin. The duplex contains a unique CpG site overlapping with a restriction site of a methylation sensitive restriction enzyme. The C-terminal catalytic domain of human DNMT3A (residues 623–908), produced as described, was added in each well (200 ng/well) and mixed with the chemical compounds at desired concentrations and freshly prepared AdoMet (20 µM final concentration) to start the reaction in a total volume of 50 µL. After 1 hour incubation at 37°C each well were washed three times with PBS, 0.05% Tween-20, 500 mM NaCl and three more times with PBST. Specific fluorescent signals were detected with the methylation-sensitive restriction enzyme HpyCH4IV (NEB) as described and measured on a Perkin Elmer Envision detector. The percentage of inhibition is reported. The formula used to calculate the percentage of inhibition is [(X-Y)/X]×100, where X is the signal determined in the absence of the inhibitor and Y is the signal obtained in the presence of the inhibitor. […] The non-linear regression fittings with sigmoidal dose-response (variable slope) were performed with GraphPad Prism 4.03 (GraphPad Software).

[2] = system: C-terminal catalytic domain of human DNMT3A (hDNMT3A); experiment: as above; type: biochemical; conditions: for selectivity for DNMT3A over G9a inhibition: G9a IC50 vs DNMT3A EC50
Excerpt: as §1

U-937 cells = experiment: Cell viability by trypan blue exclusion, U-937; type: cell-based, human; conditions: U-937, 48 h; for IC50: Homo sapiens, read-out: IC50 (mean ± SD) cell viability U-937
Procedure: U-937 and RAJI cell lines were purchased from Deutsche Sammlung für Mikroorganismen und Zellkulturen (DSZM). Cells were maintained in RPMI 1640 (Lonza) supplemented with 10% fetal calf serum (Lonza) and 1% antibiotic–antimycotic (Lonza). Cells were treated with compounds at the indicated concentrations in exponential growth phase. Proliferation and viability were assessed by trypan blue exclusion analysis at the indicated time points.

T1 sequence (Q9Y6K1 627-912): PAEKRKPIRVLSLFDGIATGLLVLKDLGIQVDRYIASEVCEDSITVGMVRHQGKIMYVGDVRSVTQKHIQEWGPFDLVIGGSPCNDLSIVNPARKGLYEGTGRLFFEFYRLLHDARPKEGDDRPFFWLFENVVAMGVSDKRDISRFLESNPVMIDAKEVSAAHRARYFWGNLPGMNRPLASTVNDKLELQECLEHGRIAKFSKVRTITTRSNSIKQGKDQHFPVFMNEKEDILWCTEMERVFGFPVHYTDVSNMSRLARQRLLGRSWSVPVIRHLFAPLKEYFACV

For `c1ccc(CN2CCC(Nc3nc(N4CCN(c5ccccn5)CC4)nc4ccccc34)CC2)cc1` [Compound 13], the inhibition at 3.2 µM [1] was 8 ± 1%, the inhibition at 10 µM [1] was 19 ± 13% and the inhibition at 32 µM [1] was 52 ± 5%. The inhibition at 100 µM [1] was 62 ± 3%, the EC50 [1] was 12 ± 4 µM and the “selectivity for DNMT3A over G9a inhibition” value [2] was over 40 fold. It also gave an IC50 (U-937 cells) of 18.8 ± 1.2 µM.

`CN1CCCN(c2nc(NC3CCN(Cc4ccccc4)CC3)c3ccccc3n2)CC1` [Compound 4] gave an inhibition at 3.2 µM [1] of 16 ± 4%, an inhibition at 10 µM [1] of 39 ± 2% and an inhibition at 32 µM [1] of 55 ± 3%. For the same molecule, the inhibition at 100 µM [1] was 67 ± 3%, the EC50 [1] was 10 ± 2.5 µM and the “selectivity for DNMT3A over G9a inhibition” value [2] was over 40 fold. It also gave an IC50 (U-937 cells) of 16.6 ± 3.8 µM.

In the case of `c1ccc(CN2CCC(Nc3nc(N4CCCC4)nc4ccccc34)CC2)cc1` [Compound 10, N-(1-benzylpiperidin-4-yl)-2-(pyrrolidin-1-yl)quinazolin-4-amine], the melting point is reported as 112 to 115 °C, the inhibition at 3.2 µM [1] is reported as 8 ± 4% and the inhibition at 10 µM [1] is reported as 21 ± 8%. The inhibition at 32 µM [1] was 43 ± 6%, the inhibition at 100 µM [1] was 70 ± 4% and the EC50 [1] was 35 ± 12 µM. For the same molecule, the “selectivity for DNMT3A over G9a inhibition” value [2] was 18 fold, the “selectivity for DNMT3A over DNMT1” value ([2]; ratio of EC50 values) was 4 fold and the IC50 (U-937 cells) was 14.7 ± 3.8 µM.

`c1ccc(CN2CCC(Nc3nc(N4CCN(c5ccccc5)CC4)nc4ccccc34)CC2)cc1` [Compound 14, N-(1-benzylpiperidin-4-yl)-2-(4-phenylpiperazin-1-yl)quinazolin-4-amine] showed an inhibition at 3.2 µM [1] of 13 ± 2%, an inhibition at 10 µM [1] of 40 ± 4% and an inhibition at 32 µM [1] of 54 ± 3%. For the same molecule, the inhibition at 100 µM [1] was 63 ± 4%, the EC50 [1] was 9 ± 2 µM and the “selectivity for DNMT3A over G9a inhibition” value [2] was over 40 fold. For the same molecule, the IC50 (U-937 cells) was 4.4 ± 1.4 µM and the “antiproliferative potency compared to SGI-1027, fold less efficient” value (U-937 cells) was 2.6 fold.
